In patent US12583852B2, “Heterocycle derivative” (JW PHARMACEUTICAL CORPORATION, priority 2018, dated 2026):

Tested on: human dermal papilla cells
Assay: Promotion of proliferation of human dermal papilla cells (CellTiter-Glo Luminescent cell viability assay)
Type: cell-based
Settings: human dermal papilla cells (ScienCell, 2499); drug 0 to 30 μM; 48 hours; CellTiter-Glo luminescence; compared to DMSO-treated control group
Protocol: The effect of promoting cell proliferation by the drug was analyzed using human dermal papilla cells (ScienCell, 2499). Human dermal papilla cells cultured using Mesenchymal Stem Cell Medium (ScienCell, 7501) medium were seeded at a density of 3×10^3 cells/well and in a volume of 100 μl in a 96-well plate, incubated overnight at 37° C. and 5% CO2, treated with the drug at different concentrations ranging from 0 to 30 μM in a volume of 100 μL, and incubated at 37° C. and 5% CO2 for 48 hours. CellTiter-Glo Luminescent cell viability assay was performed according to the manufacturer's protocol (Promega, G7573) to detect cell proliferation. Luminescence was measured using an Envision 2102 multilabeled reader (PerkinElmer) equipment, and the cell proliferation rate was analyzed by the activity of the drug-treated group compared to the DMSO-treated group (control group), which is a solvent of the drug.

Point of comparison: `O=C(Nc1n[nH]c2nc(Nc3cccc4c3CCC4)c(F)cc12)c1ccncc1` [Compound 91, N-(6-((2,3-dihydro-1H-inden-4-yl)amino)-5-fluoro-1H-pyrazolo[3,4-b]pyridin-3-yl)isonicotinamide], “Maximum DP cell proliferation (%)” value 6.4%. Against it:
- Nc1n[nH]c2nc(Nc3cc(O)cc4c3CCC4)c(F)cc12 [Compound 56, 7-[(3-amino-5-fluoro-1H-pyrazolo[3,4-b]pyridin-6-yl)amino]indan-5-ol] — higher, 7.3%
- Nc1n[nH]c2nc(Nc3c(O)ccc4c3CCC4)c(F)cc12 [Compound 57, 4-[(3-amino-5-fluoro-1H-pyrazolo[3,4-b]pyridin-6-yl)amino]indan-5-ol] — lower, 3.1%
- Cc1c(Nc2cccc3c2CCC3)nc2[nH]nc(N)c2c1C [Compound 58, N6-(2,3-dihydro-1H-inden-4-yl)-4,5-dimethyl-1H-pyrazolo[3,4-b]pyridine-3,6-diamine] — higher, 13%
- Nc1n[nH]c2nc(Nc3cccc(Cl)c3Cl)c(F)cc12 [Compound 59, N6-(2,3-dichlorophenyl)-5-fluoro-1H-pyrazolo[3,4-b]pyridine-3,6-diamine] — higher, 15%
- Nc1n[nH]c2nc(Nc3cccc4ncccc34)c(F)cc12 [Compound 60, 5-fluoro-N6-(quinolin-5-yl)-1H-pyrazolo[3,4-b]pyridine-3,6-diamine] — lower, 6.1%
- Nc1n[nH]c2nc(Nc3cccc(C(F)F)c3F)c(F)cc12 [Compound 61, N6-(3-(difluoromethyl)-2-fluorophenyl)-5-fluoro-1H-pyrazolo[3,4-b]pyridine-3,6-diamine] — higher, 11%
- Nc1n[nH]c2nc(Nc3cccc(F)c3C(F)(F)F)c(F)cc12 [Compound 62, 5-fluoro-N6-(3-fluoro-2-(trifluoromethyl)phenyl)-1H-pyrazolo[3,4-b]pyridine-3,6-diamine] — lower, 6.2%
- Nc1n[nH]c2nc(Nc3cccc(C(F)(F)F)c3F)c(F)cc12 [Compound 64, 5-fluoro-N6-(2-fluoro-3-(trifluoromethyl)phenyl)-1H-pyrazolo[3,4-b]pyridine-3,6-diamine] — higher, 16%
- Nc1n[nH]c2nc(Nc3cccc(C(F)(F)F)c3F)ccc12 [Compound 65, N6-[2-fluoro-3-(trifluoromethyl)phenyl]-1H-pyrazolo[3,4-b]pyridine-3,6-diamine] — higher, 10%
- Nc1n[nH]c2nc(Nc3cccc(C(F)(F)F)c3F)cnc12 [Compound 66, N6-[2-fluoro-3-(trifluoromethyl)phenyl]-1H-pyrazolo[3,4-b]pyrazine-3,6-diamine] — higher, 25%
- Cc1c(Cl)cccc1Nc1nc2[nH]nc(N)c2cc1F [Compound 67, N6-(3-chloro-2-methylphenyl)-5-fluoro-1H-pyrazolo[3,4-b]pyridine-3,6-diamine] — higher, 13%
- Nc1n[nH]c2nc(Nc3cc(C(F)(F)F)ccc3F)c(F)cc12 [Compound 68, 5-fluoro-N6-(2-fluoro-5-(trifluoromethyl)phenyl)-1H-pyrazolo[3,4-b]pyridine-3,6-diamine] — lower, 4.5%
- Nc1n[nH]c2nc(Nc3ccc(C(F)(F)F)c(F)c3)c(F)cc12 [Compound 72, 5-fluoro-N6-[3-fluoro-4-(trifluoromethyl)phenyl]-1H-pyrazolo[3,4-b]pyridine-3,6-diamine] — higher, 6.8%
- Nc1n[nH]c2nc(Nc3cc(F)cc(C(F)(F)F)c3F)c(F)cc12 [Compound 73, N6-[2,5-difluoro-3-(trifluoromethyl)phenyl]-5-fluoro-1H-pyrazolo[3,4-b]pyridine-3,6-diamine] — higher, 14%
- Nc1n[nH]c2nc(Nc3ccc(Cl)c(C(F)F)c3)c(F)cc12 [Compound 75, N6-(4-chloro-3-(difluoromethyl)phenyl)-5-fluoro-1H-pyrazolo[3,4-b]pyridine-3,6-diamine] — lower, 3%
- Cc1ccc(Cl)c(Nc2nc3[nH]nc(N)c3cc2F)c1F [Compound 76, N6-(6-chloro-2-fluoro-3-methylphenyl)-5-fluoro-1H-pyrazolo[3,4-b]pyridine-3,6-diamine] — lower, 4%
- Nc1n[nH]c2nc(Nc3cccc(C(F)(F)F)c3Cl)c(F)cc12 [Compound 77, N6-(2-chloro-3-(trifluoromethyl)phenyl)-5-fluoro-1H-pyrazolo[3,4-b]pyridine-3,6-diamine] — higher, 15%
- N#Cc1cccc(Nc2nc3[nH]nc(N)c3cc2F)c1F [Compound 79, 3-[(3-amino-5-fluoro-1H-pyrazolo[3,4-b]pyridin-6-yl)amino]-2-fluoro-benzonitrile] — lower, 3.6%
- Nc1n[nH]c2nc(Nc3ccc(F)c(C(F)(F)F)c3F)c(F)cc12 [Compound 80, N6-(2,4-difluoro-3-(trifluoromethyl)phenyl)-5-fluoro-1H-pyrazolo[3,4-b]pyridine-3,6-diamine] — lower, 6%
- Cc1c(F)cccc1Nc1nc2[nH]nc(N)c2cc1F [Compound 82, 5-fluoro-N6-(3-fluoro-2-methylphenyl)-1H-pyrazolo[3,4-b]pyridine-3,6-diamine] — higher, 14%
- Cc1nc(Nc2cccc3c2CCC3)nc2[nH]nc(N)c12 [Compound 84, N6-(2,3-dihydro-1H-inden-4-yl)-4-methyl-1H-pyrazolo[3,4-d]pyrimidine-3,6-diamine] — higher, 7.4%
- Nc1n[nH]c2nc(Nc3cccc4c3CCC4(F)F)c(F)cc12 [Compound 85, N6-(1,1-difluoro-2,3-dihydro-1H-inden-4-yl)-5-fluoro-1H-pyrazolo[3,4-b]pyridine-3,6-diamine] — higher, 15%
- CC(=O)n1nc(N)c2cc(F)c(Nc3cccc4c3CCC4)nc21 [Compound 88, 1-(3-amino-6-((2,3-dihydro-1H-inden-4-yl)amino)-5-fluoro-1H-pyrazolo[3,4-b]pyridin-1-yl)ethan-1-one] — higher, 8%
- O=C(Nc1n[nH]c2nc(Nc3cccc4c3CCC4)c(F)cc12)C1CCCC1 [Compound 89, N-(6-((2,3-dihydro-1H-inden-4-yl)amino)-5-fluoro-1H-pyrazolo[3,4-b]pyridin-3-yl)cyclopentanecarboxamide] — lower, 0.4%
- Cn1nc(N)c2cc(F)c(Nc3cccc4c3CCC4)nc21 [Compound 90, N6-(2,3-dihydro-1H-inden-4-yl)-5-fluoro-1-methyl-1H-pyrazolo[3,4-b]pyridine-3,6-diamine] — higher, 13%
- CC(=O)Nc1n[nH]c2nc(Nc3cccc4c3CCC4)c(F)cc12 [Compound 92, N-(6-((2,3-dihydro-1H-inden-4-yl)amino)-5-fluoro-1H-pyrazolo[3,4-b]pyridin-3-yl)acetamide] — higher, 8%
- Nc1nn(Cc2ccccc2)c2nc(Nc3cccc4c3CCC4)c(F)cc12 [Compound 93, 1-benzyl-N6-(2,3-dihydro-1H-inden-4-yl)-5-fluoro-1H-pyrazolo[3,4-b]pyridine-3,6-diamine] — lower, 2.8%
- CC(=O)Cn1nc(N)c2cc(F)c(Nc3cccc4c3CCC4)nc21 [Compound 94, 1-(3-amino-6-((2,3-dihydro-1H-inden-4-yl)amino)-5-fluoro-1H-pyrazolo[3,4-b]pyridin-1-yl)propan-2-one] — higher, 18%
